Source: patent US20250091982A1, “Pharmaceutical Composition, Methods of Use Thereof for Treating Cocaine Addiction, and Novel Use of Hausp K444R Point Mutant Mouse” (PHARWAR BIOTECHNOLOGY, INC. PTE. LTD., priority 2022, published 2025)

Tests used:
[1] = biological target: T1, SIAH1 (Homo sapiens, UniProt Q8IUQ4); assay: E3-ligase auto ubiquitination assay (K48-linked polyubiquitination of HAUSP mediated by SIAH1); type: biochemical; conditions: 37° C., 1 hour, Western blot with Ub-K48 antibody, compared to vehicle; FIG. 14A, 14B
T1 sequence (Q8IUQ4 1-282): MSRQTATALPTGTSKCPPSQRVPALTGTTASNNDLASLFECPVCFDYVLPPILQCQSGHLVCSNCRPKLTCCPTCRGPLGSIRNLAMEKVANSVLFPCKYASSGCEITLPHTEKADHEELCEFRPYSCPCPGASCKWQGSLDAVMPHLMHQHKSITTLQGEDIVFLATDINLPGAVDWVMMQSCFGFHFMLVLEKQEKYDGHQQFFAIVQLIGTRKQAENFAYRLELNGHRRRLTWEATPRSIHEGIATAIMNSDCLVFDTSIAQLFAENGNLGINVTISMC
Method: SIAH1 mediates the K48-linked polyubiquitination of HAUSP. Therefore, for the ubiquitination assay, SIAH1 was incubated in the solution (0.25 mg/1 ml, total 100 μg) containing 20 mM Tris-HCl buffer (pH 8.0), 100 mM NaCl, 1 mM DTT and 40% glycerol and HAUSP (50 μg) was in 50 mM HEPES pH 7.5, 100 mM NaCl, 1 mM TCEP (tris (2-carboxyethyl) phosphine) buffer. […] The E3-ligase auto ubiquitination assay was performed by E3 Ligase Auto-Ubiquitilylation Assay Kit (Abcam, ab139469, UK).

[2] = test system: HAUSP levels in SH-SY5Y cells; assay: Western blot of HAUSP in cocaine-treated SH-SY5Y cells; conditions: cocaine 200 μM with inhibitor, 24 hr; for HAUSP levels decreased by cocaine in SH-SY5Y cells (western blot): FIG. 14C; for relative protein expression ratios of HAUSP normalized with β-actin: quantified with ImageJ, FIG. 14D
[3] = test system: locomotion activity induced by cocaine; assay: Locomotion activity (open field test) of cocaine induced mice; type: in vivo; conditions: compound 10 mg/kg 10 mins before cocaine 25 mg/kg i.p.; FIGS. 12A to 12C
Text: 8 mice from Preparation Example 2 were randomly chosen to conduct Locomotion Activity I. The open fields using white acrylic chambers measured 50 cm (length)×50 cm (width)×38 cm (height) were made from white high density and non-porous plastics. Once the Video Tracking software (ANY-maze, Stoelting Co, IL, USA) was opened, the cursor was moved to the “Single-Subject Tracking” option located under the “Data Acquisition” tab and single-clicked to open this option. The software package used in this protocol allows the tracking of up to 6 individual mice at one time. The mice were brought to open fields to acclimate to the procedure room for 30 minutes (min) prior to starting the test. The tracking plot of randomly chosen 6 mice was recorded and analyzed by ANY-maze software.
(§1) Conditioned place preference (CPP) is a classical conditioning paradigm used in behavioral neuroscience to study the rewarding and aversive properties of drugs or other stimuli. It involves associating a particular environment or location with the experience of a rewarding or aversive stimulus, such as drugs, food, or electric shock. In CPP experiment, mice were first trained to associate one compartment of a box and then, they were placed in the neutral compartment and allowed to freely explore both compartments, and animals' preference for one compartment over the other was measured. After vehicle/Compound 2-2 (10 mg/kg)/Compound 2-3 (10 mg/kg)/Compound 3-3 (10 mg/kg) treatment for 10 mins, the well-trained mice were administrated with cocaine (25 mg/kg, i.p.) for 30 mins. The content of the vehicle is 0.5% DMSO, 25% PEG-300, 4% Tween-80, and 70.5% saline. The locomotion activity experiment was the same as the method of open field test described in Experiment 2.

[4] = test system: cocaine conditioned place preference; assay: Conditioned place preference (CPP) test induced by cocaine; type: in vivo, mice; conditions: compound 10 mg/kg 10 mins before cocaine 25 mg/kg i.p.; FIG. 12D
Text: as §1

[5] = test system: lever press induced by cocaine; assay: Lever press test (cocaine self-administration); type: in vivo, mice; conditions: 10 mg/kg intraperitoneally 10 min prior to cocaine self-administration
Method: Mice were anesthetized with isoflurane (induction and maintenance at 4%-5%) for surgical implantation of a jugular vein catheter connected to a head-mounted entry port. Briefly, the right jugular vein was exposed, and the catheter tubing was inserted and secured to the vein. The catheter was passed under the skin to an incision on the head, and the port was secured to the skull with dental cement anchored by screws. Mice were given buprenorphine (0.05-0.10 mg/kg, intraperitoneal.) for analgesia and allowed to recover for 7-10 days before beginning self-administration. Catheter patency was maintained by daily infusion of 100 μl heparin (120 U/μl) through the catheter and treated with Cefazolin, 200 mg/kg, subcutaneously, to prevent bacterial infections.
The lever press test was done in extra wide mouse operant chambers with a modified top (Med Associates, VT, USA). The chamber contained a retractable lever, a food pellet receptacle connected to a pellet dispenser, with a stimulus light above the pellet receptacle, and contained a house light. Cocaine was delivered by a syringe pump located outside the chamber, and the drug delivery tubing was connected to the mice through a swivel (Instech, Plymouth Meeting, PA, USA) and the swivel arm connected on top of the chamber to allow free movement of the mice during self-administration. All the sessions were remotely operated and recorded by MED-PC V software (Med Associates, VT, USA). Mice were pre-trained with food through pressing the levers and were food-restricted during the study. After training, mice were provided ad libitum access to water and food.
Self-administration sessions took place once daily during the light-dark cycle for 14 consecutive days. Before starting the study, mice were allowed to acclimate to the housing for approximately 3 days. The availability of cocaine reward was indicated by illumination of the house light and pressing levers. […] Each infusion was paired with a cue (1 s illumination of the stimulus green light) followed by a 10-second time-out signaled by turning off the house light. […] Each chamber was operated under a 3-hour session, or until mice received 100 infusions (20 mg/kg) of cocaine (to prevent cocaine overdose). No treatment groups were implanted with a catheter and placed in the operant chambers with identical cues but not connected to the syringe pump and received no reward for pressing the active levers. Vehicle or inhibitor (Compound 2-2, Compound 2-3, or Compound 3-3) with a dosage of 10 mg/kg was injected intraperitoneally for 10 min prior to cocaine self-administration. The content of the vehicle is 0.5% DMSO, 25% PEG-300, 4% Tween-80, and 70.5% saline. Mice met criteria for acquisition of self-administration when they: (1) self-administered at least 30 infusions in a session; (2) >85% of responses were on the active […]; and (3) had no more than 20% variation in number of infusions between sessions. The lever press frequency and number within 3 hours indicate the cocaine addiction symptom.

Compound | inhibition of K48-linked polyubiquitination of HAUSP mediated by SIAH1 [1] | HAUSP levels decreased by cocaine in SH-SY5Y cells (western blot) [2] | relative protein expression ratios of HAUSP normalized with β-actin [2] | increased locomotion activity or increased distance traveled induced by cocaine treatment [3] | time spent in cocaine paired compartments (CPP test) [4] | cumulative cocaine reinforcements ([5]; FIG. 13G) | latency to first response in mice treated with cocaine ([5]; FIG. 13H) | lever press frequencies induced by cocaine treatment ([5]; FIGS. 13A to 13F)
Cc1ccccc1C(=O)OCCOC(=O)c1ccc(Cl)cc1N [Compound 1-1, 2-((2-Methylbenzoyl)oxy) ethyl 2-amino-4-chlorobenzoate] | can inhibit | can restore | can restore |  |  |  |  | 
COCCNC(=O)c1ccc(Cl)cc1NS(=O)(=O)c1ccccc1C [Compound 2-1, 4-Chloro-N-(2-methoxyethyl)-2-((2-methylphenyl)sulfonamido)benzamide] | can inhibit | can restore | can restore |  |  |  |  | 
COCCNC(=O)c1ccc(Cl)cc1NC(=O)c1c(C)cc(C)cc1C [Compound 2-3, N-(5-Chloro-2-((2-methoxyethyl)carbamoyl)phenyl)-2,4,6-trimethylbenzamide] | can inhibit | can restore | can restore | decreased | decreased | decreased | increased | decreased
COCCNC(=O)c1ccc(Cl)cc1NS(=O)(=O)c1c(C)cc(C)cc1C [Compound 2-4, 4-Chloro-N-(2-methoxyethyl)-2-((2,4,6-trimethylphenyl)sulfonamido)benzamide] | can inhibit | can restore | can restore |  |  |  |  | 
COCCNC(=O)c1ccc(Cl)cc1NC(=O)c1c(F)cccc1F [Compound 2-5, 4-Chloro-N-(2-methoxyethyl)-2-(2,6-difluorobenzamido)benzamide] | can inhibit | can restore | can restore |  |  |  |  | 
COCCNC(=O)c1ccccc1NS(=O)(=O)c1ccccc1C [Compound 3-1, N-(2-Methoxyethyl)-2-((2-methylphenyl)sulfonamido)benzamide] | can inhibit | can restore | can restore |  |  |  |  | 
COCCNC(=O)c1ccccc1NC(=O)c1ccccc1C [Compound 3-2, N-(2-Methoxyethyl)-2-(2-methylbenzamido)benzamide] | can inhibit | can restore | can restore |  |  |  |  | 
COCCNC(=O)c1ccc(Br)cc1NC(=O)c1ccccc1C [Compound 4-1, 4-Bromo-N-(2-methoxyethyl)-2-(2-methylbenzamido)benzamide] | can inhibit | can restore | can restore |  |  |  |  | 
COCCNC(=O)c1ccc(Br)cc1NC(=O)c1c(C)cc(C)cc1C [Compound 4-2, N-(5-Bromo-2-((2-methoxyethyl)carbamoyl)phenyl)-2,4,6-trimethylbenzamide] | can inhibit | can restore | can restore |  |  |  |  | 
COCCNC(=O)c1ccc(C)cc1NC(=O)c1c(C)cc(C)cc1C [Compound 5-2, N-(2-((2-Methoxyethyl)carbamoyl)-5-methylphenyl)-2,4,6-trimethylbenzamide] | can inhibit | can restore | can restore |  |  |  |  | 
CCOCCNC(=O)c1ccc(Cl)cc1NC(=O)c1ccccc1C [Compound 6-1, 4-Chloro-N-(2-ethoxyethyl)-2-(2-methylbenzamido)benzamide] | can inhibit | can restore | can restore |  |  |  |  | 
CCCOCCNC(=O)c1ccc(Cl)cc1NC(=O)c1ccccc1C [Compound 7-1, 4-Chloro-N-(2-propoxyethyl)-2-(2-methylbenzamido)benzamide] | can inhibit | can restore | can restore |  |  |  |  | 
CC(C)(C)C(=O)Oc1ccc(S(=O)(=O)Nc2ccccc2C(=O)NCCO)cc1 [Compound 12-1] | can inhibit | can restore | can restore |  |  |  |  | 
Cc1ccccc1S(=O)(=O)Nc1ccccc1C(=O)NCCO [Compound 12-2, N-(2-hydroxyethyl)-2-(2-methylphenylsulfonamido)benzamide] | can inhibit | can restore | can restore |  |  |  |  | 
